Values quoted from earlier work in article PMC10329699, “Pharmacokinetics, biodistribution and toxicology of novel cell-penetrating peptides” (Scientific Reports, 2023).
Read-outs that look alike come from different tables or passages of the source.

Columns and labels:
[1] = literature values for comparison
Excerpt: Considering their smaller size (up to 30 amino acids in length), cationic and/or amphipathic CPPs have a greater potential to penetrate the BBB than other transport systems. […] For the sake of comparison, a control IgG, an IgG binding ...

**Q.** With `OC[C@H]1OC(O)[C@H](O)[C@@H](O)[C@@H]1O` (stereo partly drawn) [glucose] as the molecule, how does the “Clup (brain uptake coefficient), comparison values” [1] read?
**A.** ≈ 1 µl g^−1 s^−1

**Q.** With TAT as the molecule, how does the “half-life (stability in human serum)” value (in vitro at 37 °C in human serum) read?
**A.** 8.8 h

**Q.** For penetratin, which “half-life (stability in human serum)” value (human) is on record?
**A.** 1.2 h
